From patent US8012975B2, “Antitumoral analogs of ET-743” (Pharma Mar, S.A., priority 2000, dated 2011)

Columns and labels:
P-388 = assay: Cytotoxic activity IC50, P-388; details: Mus musculus, P388, read-out: CYTOTOXIC ACTIVITIY IC50 (μM) P-388
MEL-28 = assay: Cytotoxic activity IC50, MEL-28; details: Homo sapiens, SK-MEL-28, read-out: CYTOTOXIC ACTIVITIY IC50 (μM) MEL-28, MEL-28
A-549 = assay: Cytotoxic activity IC50, A-549; details: Homo sapiens, A549, read-out: CYTOTOXIC ACTIVITIY IC50 (μM) A-549, A-549
HT-29 = assay: Cytotoxic activity IC50, HT-29; details: Homo sapiens, HT-29, read-out: CYTOTOXIC ACTIVITIY IC50 (μM) HT-29, HT-29
DU-145 = assay: Cytotoxic activity IC50, DU-145; details: Homo sapiens, DU-145, read-out: CYTOTOXIC ACTIVITIY IC50 (μM) DU-145, DU-145

| SMILES | IC50 (P-388) | IC50 (MEL-28) | IC50 (A-549) | IC50 (HT-29) | IC50 (DU-145) |
| --- | --- | --- | --- | --- | --- |
| COc1c(C)cc2c(c1O)[C@@H]1C3[C@@H]4SCC(=O)C(=O)OC[C@@H](c5c6c(c(C)c(OC(C)=O)c54)OCO6)N3[C@@H](C#N)[C@H](C2)N1C (some centres unmarked) | 0.1 µM | 0.1 µM | 0.1 µM | 0.1 µM |  |
| COC1=C(C)C(=O)C2=C(C1=O)[C@H](CNC(C)=O)N1C(C2)[C@H]2c3c(cc(C)c(OC)c3O)C[C@@H]([C@@H]1C#N)N2C (some centres unmarked) | 0.005 µM | 0.005 µM | 0.005 µM | 0.005 µM |  |
| COc1c(C)cc2c(c1O)[C@@H]1C3Cc4c(OC(C)=O)c(C)c5c(c4[C@H](CNC(=O)CC(C)C)N3[C@@H](O)[C@H](C2)N1C)OCO5 (some centres unmarked) | 0.0008 µM | 0.0008 µM | 0.001 µM | 0.0008 µM | 0.001 µM |
| COc1c(C)cc2c(c1O)[C@@H]1C3Cc4c(OC(C)=O)c(C)c5c(c4[C@H](CNC(=O)[C@@H](C)NC(=O)CC(C)C)N3[C@@H](O)[C@H](C2)N1C)OCO5 (some centres unmarked) | 0.001 µM | 0.001 µM | 0.001 µM | 0.001 µM | 0.001 µM |
| COc1c(C)cc2c(c1O)[C@@H]1C3Cc4c(OC(C)=O)c(C)c5c(c4[C@H](CNC(=O)[C@@H](NC(=O)OCc4ccccc4)C(C)C)N3[C@@H](C#N)[C@H](C2)N1C)OCO5 (some centres unmarked) | 0.001 µM | 0.001 µM | 0.001 µM | 0.001 µM | 0.001 µM |
| COc1c(C)cc2c(c1O)[C@@H]1C3Cc4c(OC(C)=O)c(C)c5c(c4[C@H](CNC(=O)[C@H](C)NC(=O)CCc4ccccc4)N3[C@@H](C#N)[C@H](C2)N1C)OCO5 (some centres unmarked) | 0.0006 µM | 0.001 µM | 0.001 µM | 0.0006 µM | 0.0006 µM |
| CCC(=O)N[C@@H](C)C(=O)NC[C@H]1c2c(c(OC(C)=O)c(C)c3c2OCO3)CC2[C@H]3c4c(cc(C)c(OC)c4O)C[C@@H]([C@H](C#N)N21)N3C (some centres unmarked) | 0.0007 µM | 0.0007 µM | 0.0007 µM | 0.0007 µM | 0.0007 µM |
| C/C=C/C(=O)N[C@@H](C)C(=O)NC[C@H]1c2c(c(OC(C)=O)c(C)c3c2OCO3)CC2[C@H]3c4c(cc(C)c(OC)c4O)C[C@@H]([C@H](C#N)N21)N3C (some centres unmarked) | 0.001 µM | 0.001 µM | 0.007 µM | 0.001 µM | 0.007 µM |
| COc1c(C)cc2c(c1O)[C@@H]1C3Cc4c(OC(C)=O)c(C)c5c(c4[C@H](CNC(=O)[C@H](C)NC(=O)[C@@H](NC(=O)OCc4ccccc4)C(C)C)N3[C@@H](C#N)[C@H](C2)N1C)OCO5 (some centres unmarked) | 0.01 µM | 0.01 µM | 0.01 µM | 0.01 µM | 0.01 µM |
| CCCC(=O)N[C@@H](C)C(=O)NC[C@H]1c2c(c(OC(C)=O)c(C)c3c2OCO3)CC2[C@H]3c4c(cc(C)c(OC)c4O)C[C@@H]([C@H](O)N21)N3C (some centres unmarked) | 0.001 µM | 0.001 µM | 0.001 µM | 0.001 µM | 0.001 µM |
| C/C=C/C(=O)N[C@@H](C)C(=O)NC[C@H]1c2c(c(OC(C)=O)c(C)c3c2OCO3)CC2[C@H]3c4c(cc(C)c(OC)c4O)C[C@@H]([C@H](O)N21)N3C (some centres unmarked) | 0.001 µM | 0.001 µM | 0.007 µM | 0.001 µM | 0.007 µM |
| C=CCOc1c(C)c2c(c3c1CC1[C@H]4c5c(cc(C)c(OC)c5OCOC)C[C@@H]([C@H](C#N)N1[C@H]3COC(=O)CCC)N4C)OCO2 (some centres unmarked) | > 1 µM | > 1 µM | > 1 µM | > 1 µM | > 1 µM |
| C=CCOc1c(C)c2c(c3c1CC1[C@H]4c5c(cc(C)c(OC)c5OCOC)C[C@@H]([C@H](C#N)N1[C@H]3COC(=O)/C=C/c1cccc(C(F)(F)F)c1)N4C)OCO2 (some centres unmarked) | > 1 µM | > 1 µM | > 1 µM | > 1 µM | > 1 µM |
| C=CCOc1c(C)c2c(c3c1CC1[C@H]4c5c(cc(C)c(OC)c5OCOC)C[C@@H]([C@H](C#N)N1[C@H]3COC(=O)/C=C/c1ccccc1)N4C)OCO2 (some centres unmarked) | 0.1 µM | 0.1 µM | 0.1 µM | 0.1 µM | 0.1 µM |
| COCOc1c(OC)c(C)cc2c1[C@@H]1C3Cc4c(OC(C)=O)c(C)c5c(c4[C@H](COC(=O)/C=C/c4ccccc4)N3[C@@H](C#N)[C@H](C2)N1C)OCO5 (some centres unmarked) | 0.01 µM |  |  |  |  |
| COc1c(C)cc2c(c1O)[C@@H]1C3Cc4c(OC(C)=O)c(C)c5c(c4[C@H](CNC(=O)[C@H](Cc4ccccc4)NC(=O)OC(C)(C)C)N3[C@@H](C#N)[C@H](C2)N1C)OCO5 (some centres unmarked) |  |  | 0.0013 µM | 0.0013 µM |  |
| COc1c(C)cc2c(c1O)[C@@H]1C3Cc4c(OC(C)=O)c(C)c5c(c4[C@H](CNC(=O)[C@@H](NC(=O)OC(C)(C)C)C(C)C)N3[C@@H](C#N)[C@H](C2)N1C)OCO5 (some centres unmarked) |  |  | 0.007 µM | 0.007 µM |  |
| COc1c(C)cc2c(c1O)[C@@H]1C3Cc4c(OC(C)=O)c(C)c5c(c4[C@H](CNC(=O)[C@@H]4CCCN4C(=O)OC(C)(C)C)N3[C@@H](C#N)[C@H](C2)N1C)OCO5 (some centres unmarked) |  |  | 0.014 µM | 0.014 µM |  |
| COc1c(C)cc2c(c1O)[C@@H]1C3Cc4c(OC(C)=O)c(C)c5c(c4[C@H](CNC(=O)[C@H](Cc4c[nH]c6ccccc46)NC(=O)OC(C)(C)C)N3[C@@H](C#N)[C@H](C2)N1C)OCO5 (some centres unmarked) |  |  | 0.00012 µM | 0.00012 µM |  |
| COc1c(C)cc2c(c1O)[C@@H]1C3Cc4c(OC(C)=O)c(C)c5c(c4[C@H](CNC(=O)[C@H](Cc4c[nH]c6ccccc46)NC(=O)OC(C)(C)C)N3[C@@H](O)[C@H](C2)N1C)OCO5 (some centres unmarked) |  |  | 0.012 µM |  |  |

| SMILES | IC50 (P-388) | IC50 (MEL-28) | IC50 (A-549) | IC50 (HT-29) | IC50 (DU-145) |
| --- | --- | --- | --- | --- | --- |
| COc1c(C)cc2c(c1O)[C@@H]1C3Cc4c(OC(C)=O)c(C)c5c(c4[C@H](CNC(=O)c4cccnc4Cl)N3[C@@H](C#N)[C@H](C2)N1C)OCO5 (some centres unmarked) |  |  | 0.00015 µM |  |  |
| COc1c(C)cc2c(c1O)[C@@H]1C3Cc4c(OC(C)=O)c(C)c5c(c4[C@H](CNC(=O)c4cccnc4Cl)N3[C@@H](O)[C@H](C2)N1C)OCO5 (some centres unmarked) |  |  | 0.00015 µM |  |  |
| COc1c(C)cc2c(c1O)[C@@H]1C3Cc4c(OC(C)=O)c(C)c5c(c4[C@H](CNC(=O)CC4CCCCC4)N3[C@@H](C#N)[C@H](C2)N1C)OCO5 (some centres unmarked) |  |  | 0.0015 µM |  |  |
| COc1c(C)cc2c(c1OC(=O)CC1CCCCC1)[C@@H]1C3Cc4c(OC(C)=O)c(C)c5c(c4[C@H](CNC(=O)CC4CCCCC4)N3[C@@H](C#N)[C@H](C2)N1C)OCO5 (some centres unmarked) |  |  | 0.013 µM |  |  |
| COc1c(C)cc2c(c1O)[C@@H]1C3Cc4c(OC(C)=O)c(C)c5c(c4[C@H](CNC(=O)CCC4CCCCC4)N3[C@@H](C#N)[C@H](C2)N1C)OCO5 (some centres unmarked) |  |  | 0.0015 µM |  |  |
| COc1c(C)cc2c(c1OC(=O)CCC1CCCCC1)[C@@H]1C3Cc4c(OC(C)=O)c(C)c5c(c4[C@H](CNC(=O)CCC4CCCCC4)N3[C@@H](C#N)[C@H](C2)N1C)OCO5 (some centres unmarked) |  |  | 0.12 µM |  |  |
| CCCC(=O)Oc1c(OC)c(C)cc2c1[C@@H]1C3Cc4c(OC(C)=O)c(C)c5c(c4[C@H](CNC(=O)CCc4ccccc4)N3[C@@H](C#N)[C@H](C2)N1C)OCO5 (some centres unmarked) |  |  | 0.0014 µM | 0.0014 µM |  |
| CCCCCC(=O)Oc1c(OC)c(C)cc2c1[C@@H]1C3Cc4c(OC(C)=O)c(C)c5c(c4[C@H](CNC(=O)CCc4ccccc4)N3[C@@H](C#N)[C@H](C2)N1C)OCO5 (some centres unmarked) |  |  | 0.013 µM | 0.013 µM |  |
| CCCC(=O)Oc1c(OC)c(C)cc2c1[C@@H]1C3Cc4c(OC(C)=O)c(C)c5c(c4[C@H](CNC(=O)C(C)NC(=O)CCc4ccccc4)N3[C@@H](C#N)[C@H](C2)N1C)OCO5 (some centres unmarked) |  |  | 0.012 µM | 0.012 µM |  |
| CCCCCC(=O)Oc1c(OC)c(C)cc2c1[C@@H]1C3Cc4c(OC(C)=O)c(C)c5c(c4[C@H](CNC(=O)C(C)NC(=O)CCc4ccccc4)N3[C@@H](C#N)[C@H](C2)N1C)OCO5 (some centres unmarked) |  |  | 0.06 µM | 0.06 µM |  |
| COc1c(C)cc2c(c1OC(C)=O)[C@@H]1C3Cc4c(OC(C)=O)c(C)c5c(c4[C@H](CNC(=O)[C@@H](C)NC(=O)C(F)(F)F)N3[C@@H](C#N)[C@H](C2)N1C)OCO5 (some centres unmarked) |  |  | 0.013 µM | 0.013 µM |  |
| CCCC(=O)Oc1c(OC)c(C)cc2c1[C@@H]1C3Cc4c(OC(C)=O)c(C)c5c(c4[C@H](CNC(=O)[C@H](C)NC(=O)C(F)(F)F)N3[C@@H](C#N)[C@H](C2)N1C)OCO5 (some centres unmarked) |  |  | 0.13 µM | 0.13 µM |  |
| COc1c(C)cc2c(c1OC(C)=O)[C@@H]1C3Cc4c(OC(C)=O)c(C)c5c(c4[C@H](CNC(=O)[C@@H](C)N(C(C)=O)C(=O)C(F)(F)F)N3[C@@H](C#N)[C@H](C2)N1C)OCO5 (some centres unmarked) |  |  | 0.12 µM | 0.12 µM |  |
| CCCC(=O)Oc1c(OC)c(C)cc2c1[C@@H]1C3Cc4c(OC(C)=O)c(C)c5c(c4[C@H](CN(C(=O)CCC)C(=O)[C@H](C)N(C(=O)CCC)C(=O)C(F)(F)F)N3[C@@H](C#N)[C@H](C2)N1C)OCO5 (some centres unmarked) |  |  | 0.11 µM | 0.11 µM |  |
| CCCCCC(=O)Oc1c(OC)c(C)cc2c1[C@@H]1C3Cc4c(OC(C)=O)c(C)c5c(c4[C@H](CNC(=O)[C@H](C)NC(=O)C(F)(F)F)N3[C@@H](C#N)[C@H](C2)N1C)OCO5 (some centres unmarked) |  |  | 0.012 µM | 0.012 µM |  |
| C=CCNC[C@H]1c2c(c(OC(C)=O)c(C)c3c2OCO3)CC2[C@H]3c4c(cc(C)c(OC)c4O)C[C@@H]([C@H](C#N)N21)N3C (some centres unmarked) |  |  | 0.0018 µM | 0.0018 µM |  |
| C=CCOc1c(C)c2c(c3c1CC1[C@H]4c5c(cc(C)c(OC)c5O)C[C@@H]([C@H](C#N)N1[C@H]3COC(=O)/C=C/c1ccccc1)N4C)OCO2 (some centres unmarked) |  |  | 0.0015 µM | 0.0015 µM |  |
| COCOc1c(OC)c(C)cc2c1[C@@H]1C3CC4C(=O)C(C)=C5OCOC5=C4[C@H](COC(=O)/C(CSCC4c5ccccc5-c5ccccc54)=N/OC)N3[C@@H](C#N)[C@H](C2)N1C (some centres unmarked) |  |  | > 1 µM | > 1 µM |  |
| C=CCOC1C(C)=C2OCOC2=C2C1CC1[C@H]3c4c(cc(C)c(OC)c4OCOC)C[C@@H]([C@H](C#N)N1[C@H]2COC(=O)/C(=C/SCC1c2ccccc2-c2ccccc21)OCOC)N3C (some centres unmarked) |  |  | 0.056 µM | 0.056 µM |  |
